Drawing on ChEMBL document CHEMBL5385949, “Transient Receptor Potential Melastatin 7 (TRPM7) Ion Channel Inhibitors: Preliminary SAR and Conformational Studies of Xenicane Diterpenoids from the Hawaiian Soft Coral Sarcothelia edmondsoni” (J Nat Prod, 2024), this text covers IC50, inhibition and logP for 13 molecules.

Data set [1] deals with T1, Transient receptor potential cation channel subfamily M member 7 (Mus musculus, UniProt Q923J1). As to the kind of experiment: Inhibition of mouse TRPM7 transfected in HEK293T cells assessed as inhibition of channel current in absence of intracellular Mg2+ by whole cell patch clamp analysis. The format is cell-based. For orientation: The patch-clamp technique gives a direct electrical read-out from membranes.
T1 sequence (Q923J1 whole entry): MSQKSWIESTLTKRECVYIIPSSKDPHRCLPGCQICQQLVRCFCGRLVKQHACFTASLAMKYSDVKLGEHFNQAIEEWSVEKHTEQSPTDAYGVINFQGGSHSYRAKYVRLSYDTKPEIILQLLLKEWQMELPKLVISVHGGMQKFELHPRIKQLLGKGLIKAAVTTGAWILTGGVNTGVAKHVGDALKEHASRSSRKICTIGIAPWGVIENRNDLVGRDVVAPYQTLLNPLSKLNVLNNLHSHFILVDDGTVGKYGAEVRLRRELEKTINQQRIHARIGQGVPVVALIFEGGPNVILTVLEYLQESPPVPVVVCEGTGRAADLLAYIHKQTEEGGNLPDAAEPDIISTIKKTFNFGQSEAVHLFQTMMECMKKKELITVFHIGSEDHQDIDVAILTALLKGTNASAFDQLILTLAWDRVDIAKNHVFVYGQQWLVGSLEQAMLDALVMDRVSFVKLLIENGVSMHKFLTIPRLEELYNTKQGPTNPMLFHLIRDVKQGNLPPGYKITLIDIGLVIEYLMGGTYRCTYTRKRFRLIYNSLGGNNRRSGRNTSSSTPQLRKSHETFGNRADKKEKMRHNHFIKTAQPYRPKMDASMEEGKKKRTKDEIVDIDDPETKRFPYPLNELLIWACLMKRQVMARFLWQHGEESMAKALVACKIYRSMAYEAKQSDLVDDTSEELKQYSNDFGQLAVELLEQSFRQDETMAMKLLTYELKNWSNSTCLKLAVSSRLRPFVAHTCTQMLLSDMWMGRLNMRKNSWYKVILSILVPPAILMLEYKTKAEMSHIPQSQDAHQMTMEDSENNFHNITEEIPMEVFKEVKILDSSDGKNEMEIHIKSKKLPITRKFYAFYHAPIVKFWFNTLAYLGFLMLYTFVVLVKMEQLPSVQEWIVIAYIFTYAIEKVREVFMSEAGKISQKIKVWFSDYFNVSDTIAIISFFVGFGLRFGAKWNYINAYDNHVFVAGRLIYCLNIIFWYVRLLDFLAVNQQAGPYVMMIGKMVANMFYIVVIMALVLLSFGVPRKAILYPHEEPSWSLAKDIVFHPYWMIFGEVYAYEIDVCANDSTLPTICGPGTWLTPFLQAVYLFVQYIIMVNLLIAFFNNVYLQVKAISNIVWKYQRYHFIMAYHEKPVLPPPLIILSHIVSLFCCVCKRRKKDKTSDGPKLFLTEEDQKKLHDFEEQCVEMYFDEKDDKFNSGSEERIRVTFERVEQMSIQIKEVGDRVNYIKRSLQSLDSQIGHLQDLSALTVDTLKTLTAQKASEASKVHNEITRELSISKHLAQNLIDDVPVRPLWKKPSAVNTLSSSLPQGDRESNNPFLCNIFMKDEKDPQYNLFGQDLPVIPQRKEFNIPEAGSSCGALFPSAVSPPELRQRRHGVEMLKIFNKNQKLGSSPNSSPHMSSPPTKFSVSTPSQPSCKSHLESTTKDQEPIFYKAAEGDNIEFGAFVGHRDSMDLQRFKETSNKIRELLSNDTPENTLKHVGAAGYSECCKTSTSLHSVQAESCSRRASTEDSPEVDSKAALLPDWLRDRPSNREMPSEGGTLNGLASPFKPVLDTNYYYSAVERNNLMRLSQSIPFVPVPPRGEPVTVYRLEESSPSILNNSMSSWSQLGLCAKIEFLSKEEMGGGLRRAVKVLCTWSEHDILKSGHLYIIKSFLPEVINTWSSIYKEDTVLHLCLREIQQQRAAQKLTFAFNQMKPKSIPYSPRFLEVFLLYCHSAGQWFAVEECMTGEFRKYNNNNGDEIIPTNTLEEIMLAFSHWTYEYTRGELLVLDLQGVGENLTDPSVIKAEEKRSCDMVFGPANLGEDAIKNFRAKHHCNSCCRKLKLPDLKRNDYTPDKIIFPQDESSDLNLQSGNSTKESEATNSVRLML

Data set [2] concerns the target T1, Transient receptor potential cation channel subfamily M member 7. Briefly: Inhibition of mouse TRPM7 transfected in HEK293 cells assessed as inhibition of channel current in presence of 300 uM free intracellular Mg2+ by whole cell patch clamp analysis. The format is cell-based.
Data set [3] has the same target. As to the kind of experiment: Inhibition of mouse TRPM7 transfected in HEK293 cells assessed as inhibition of channel current in presence of 780 uM free intracellular Mg2+ by whole cell patch clamp analysis. The format is cell-based.
The target is the same in data set [4]. Briefly: Inhibition of mouse TRPM7 transfected in HEK293 cells assessed as inhibition of channel current in absence of intracellular Mg2+ by whole cell patch clamp analysis. The format is cell-based.
For data set [5] the target is unchanged. The format is cell-based, HEK293.
Description: Inhibition of FLAG-tagged mouse TRPM7 transfected in HEK293 cells assessed as inhibition of channel-mediated Mn2+ influx incubated for ~15 mins and measured for 90 secs by Fura-2-dye based fluorescence analysis
Data set [6] shares this target. Briefly: Inhibition of HA-tagged mouse TRPM7 transfected in HEK293 cells assessed as inhibition of channel current by whole cell patch clamp analysis. The format is cell-based.
Data set [7] has as its target T2, Transient receptor potential cation channel subfamily M member 7 (Homo sapiens, UniProt Q96QT4). Briefly: Inhibition of human TRPM7 transfected in Tet-inducible HEK293-T-REx cells assessed as inhibition of channel current in presence of 780 uM intracellular Mg2+ by whole cell patch clamp analysis. The format is cell-based.
In data set [8] the target is T2, Transient receptor potential cation channel subfamily M member 7. As to the kind of experiment: Inhibition of human TRPM7 transfected in HEK293 cells assessed as inhibition of channel current by whole cell patch clamp analysis. The format is cell-based.
Data set [9] has the same target. As to the kind of experiment: Irreversible covalent inhibition of human TRPM7 transfected in Tet-inducible HEK293-T-REx cells assessed as inhibition of channel current at 10 uM incubated for 50 to 150 secs and measured for 10 mins after drug wash-out by whole cell patch clamp analysis. The format is cell-based. The note with it: time 50-150 sec.
The target is the same in data set [10]. As to the kind of experiment: Covalent inhibition of human TRPM7 transfected in Tet-inducible HEK293-T-REx cells assessed as inhibition of channel current at 10 uM incubated for 50 to 150 secs by whole cell patch clamp analysis. The format is cell-based. The note with it: time 50-150 sec.
Data set [11] in a line: 1-Octanol/water partition coefficient, log P of the compound by LC-MS analysis. The format is physicochemical.
Data set [12] has as its target T1, Transient receptor potential cation channel subfamily M member 7. As to the kind of experiment: Inhibition of mouse TRPM7 expressed in HEK293 cells assessed as inhibition of channel current in presence of 700 uM intracellular Mg2+ by whole cell patch clamp analysis. The format is cell-based.

Active and inactive are the calls of the source. The calls are words filed in the database; no cut-off is given here.

T2 sequence (Q96QT4 whole entry): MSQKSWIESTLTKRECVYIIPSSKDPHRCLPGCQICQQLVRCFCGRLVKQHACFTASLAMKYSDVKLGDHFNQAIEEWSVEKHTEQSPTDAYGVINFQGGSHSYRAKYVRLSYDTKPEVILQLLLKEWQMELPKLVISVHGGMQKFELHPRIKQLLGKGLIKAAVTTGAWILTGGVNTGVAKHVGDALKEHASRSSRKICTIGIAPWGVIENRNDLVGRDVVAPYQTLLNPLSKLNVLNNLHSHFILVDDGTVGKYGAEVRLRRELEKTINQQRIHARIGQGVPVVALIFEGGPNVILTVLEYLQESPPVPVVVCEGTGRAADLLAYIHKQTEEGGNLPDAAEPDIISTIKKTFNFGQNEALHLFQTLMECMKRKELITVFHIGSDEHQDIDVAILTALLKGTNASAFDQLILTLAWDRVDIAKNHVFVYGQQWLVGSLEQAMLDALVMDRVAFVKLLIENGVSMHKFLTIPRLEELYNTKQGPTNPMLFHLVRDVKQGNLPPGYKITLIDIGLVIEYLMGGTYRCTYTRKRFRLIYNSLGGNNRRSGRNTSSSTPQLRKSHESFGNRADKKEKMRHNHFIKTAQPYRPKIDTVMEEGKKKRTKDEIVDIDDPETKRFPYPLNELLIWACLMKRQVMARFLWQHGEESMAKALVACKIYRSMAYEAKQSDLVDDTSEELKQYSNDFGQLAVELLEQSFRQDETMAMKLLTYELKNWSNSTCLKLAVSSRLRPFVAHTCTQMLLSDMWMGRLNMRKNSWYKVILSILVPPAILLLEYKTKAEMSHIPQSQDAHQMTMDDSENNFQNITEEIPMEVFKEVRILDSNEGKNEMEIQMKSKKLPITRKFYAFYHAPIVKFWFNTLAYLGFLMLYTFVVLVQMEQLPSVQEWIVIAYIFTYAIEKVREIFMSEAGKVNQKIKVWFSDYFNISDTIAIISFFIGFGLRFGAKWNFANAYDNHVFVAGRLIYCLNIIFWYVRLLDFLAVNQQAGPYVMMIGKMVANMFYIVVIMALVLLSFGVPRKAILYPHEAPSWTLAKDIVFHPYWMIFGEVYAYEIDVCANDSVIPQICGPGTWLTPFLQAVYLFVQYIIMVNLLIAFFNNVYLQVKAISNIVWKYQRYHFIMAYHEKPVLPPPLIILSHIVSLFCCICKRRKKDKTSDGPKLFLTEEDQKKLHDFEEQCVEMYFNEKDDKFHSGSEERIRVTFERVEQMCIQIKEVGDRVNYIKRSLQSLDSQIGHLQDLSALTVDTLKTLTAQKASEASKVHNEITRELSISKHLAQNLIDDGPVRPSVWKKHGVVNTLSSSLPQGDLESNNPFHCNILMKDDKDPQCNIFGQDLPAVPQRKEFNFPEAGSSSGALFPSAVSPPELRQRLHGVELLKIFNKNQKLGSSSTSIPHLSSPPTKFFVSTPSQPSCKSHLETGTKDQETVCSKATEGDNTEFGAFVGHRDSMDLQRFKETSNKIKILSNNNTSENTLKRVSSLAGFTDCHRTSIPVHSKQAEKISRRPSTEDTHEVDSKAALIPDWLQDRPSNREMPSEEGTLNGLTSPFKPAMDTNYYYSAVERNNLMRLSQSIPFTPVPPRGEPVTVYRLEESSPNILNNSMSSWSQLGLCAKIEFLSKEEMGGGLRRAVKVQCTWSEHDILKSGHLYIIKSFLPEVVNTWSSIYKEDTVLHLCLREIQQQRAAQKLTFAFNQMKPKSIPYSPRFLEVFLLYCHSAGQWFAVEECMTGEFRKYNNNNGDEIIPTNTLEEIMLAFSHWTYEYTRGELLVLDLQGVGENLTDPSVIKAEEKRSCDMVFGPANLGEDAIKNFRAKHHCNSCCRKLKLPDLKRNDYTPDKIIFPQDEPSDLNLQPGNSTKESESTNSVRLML

Broadly, the IC50 is the concentration that gives 50% inhibition. Take `N#Cc1ccc(COC[C@H]2O[C@@H](n3c(NCc4ccc(Cl)c(Cl)c4)nc4c(N)ncnc43)[C@H](O)[C@@H]2O)cc1`: in [1], the IC50 is 0.11 µM.
Take `c1ccc2c(c1)CCC[C@H]2Nc1nc2ccccc2[nH]1`: the IC50 in data set [2] came out at 5.9 µM; in data set [3], 3.9 µM; in [4], 1.6 µM.
Regarding `C=C1CC/C=C(\C)CC[C@H]2[C@H]1[C@H]1O[C@H](O)[C@]2(/C=C/C=C(\C)COC(C)=O)O1`, the IC50 in data set [5] was over 150 µM.
Consider `CCCCCCCCc1ccc(CCC(N)(CO)CO)cc1` [FINGOLIMOD], for which the IC50 in [6] was 0.72 µM.
`NCCOB(c1ccccc1)c1ccccc1`: the IC50 in [5] amounted to 22 µM.
Consider `C=C1[C@@H]2[C@@H](OC(C)=O)OC=C([C@H](C/C=C(\C)COC(C)=O)OC(C)=O)[C@H]2CC/C(C)=C/C[C@H]1O`, for which the values for the IC50 in data set [5] and in [7] were 12 µM and 0.09 µM, respectively.
With `C=C1CC[C@@H]2O[C@@]2(C)CC[C@@H]2C(C=O)=C[C@@H](/C=C(\C)COC(C)=O)[C@H](O)[C@@H]12`, the IC50 in [5] is over 150 µM.
The same measure, in the same setting: for `C=C1[C@@H]2[C@@H](OC(C)=O)OC=C([C@H](C/C=C(\C)COC(C)=O)OC(C)=O)[C@H]2CC[C@]2(C)O[C@H]2C[C@H]1O` the value was 13 µM; for `C=C1CC[C@@H]2O[C@@]2(C)CC[C@@H]2C([C@H](C/C=C(\C)COC(C)=O)OC(C)=O)=CO[C@H](OC(C)=O)[C@@H]12`, 33 µM; for `C=C1CC[C@H](OC(C)=O)C(=C)CC[C@@H]2C([C@H](C/C=C(\C)COC(C)=O)OC(C)=O)=CO[C@H](OC(C)=O)[C@@H]12`, 20 µM.
In turn, `C=C1CC/C=C(\C)CC[C@@H]2C([C@@H](O)C/C=C(\C)COC(C)=O)=CO[C@H](OC(C)=O)[C@@H]12` displayed an IC50 in [5] of over 130 µM.
Take `CCCCCc1cc(O)c(C/C=C(\C)CCC=C(C)C)c(O)c1C(=O)O` [CANNABIGEROLIC ACID]: in data set [8], the IC50 stood at 2.7 µM.
As a reminder, the logP is the decadic logarithm of the partition coefficient of the neutral form, usually between octanol and water. Low values mean a more hydrophilic compound, high ones a more lipophilic compound. As to `C=C1CC/C=C(\C)CC[C@@H]2C([C@H](C/C=C(\C)COC(C)=O)OC(C)=O)=CO[C@H](OC(C)=O)[C@@H]12`, the inhibition entry in data set [9] and in data set [10] was “Active” throughout. In addition, the IC50 turned out to be 20 µM in [5] and 0.016 µM in [12]. For the same molecule, the logP in [11] worked out at 3.8.
